Results as given in PMC6308302, “Identification of Pharmacokinetic Markers for Guanxin Danshen Drop Pills in Rats by Combination of Pharmacokinetics, Systems Pharmacology, and Pharmacodynamic Assays” (Frontiers in Pharmacology, 2018).
Entries after “also recorded” stand apart in the source; their conditions may differ. Marks after values point to notes of the source that are not given here.

Assays:
[1] = Stability tests in rat plasma (QC samples, HPLC-MS); conditions: n=5
Source text: Accuracy and precision were expressed by relative error (RE) and coefficient of variance (RSD), respectively.

[2] = Aqueous solubility test (vortexing in water); assay type: physicochemical; conditions: thermodynamic from solid; determined, water, 25 °C, 1 atm
Procedure: Aqueous solubility (S) test of the 17 ingredients was performed by vortexing 10 mg of each ingredient in […] water in a test tube at ambient temperature and 1 atm. After vortexing for 5 min, if the solution is clear, the tested object will be considered as soluble in water. In silico assessment of the physicochemical properties governing permeation and intestinal absorption was carried out for the 17 ingredients studied. Theory aqueous solubility (S) was calculated with ALOGPS 2.1 online software via the Virtual Computational Chemistry Laboratory service (Chemoinformatics Group, Neuherberg, Germany) (VCCLAB^1). The octanol–water partition coefficient (cLogP), the total hydrogen bond count (donors and acceptors), and topological polar surface area (TPSA) were determined using the Molinspiration Property Calculator (Molinspiration Cheminformatics, Bratislava, Slovak Republic^2). Lipinski’s rule of 5 was used to predict the permeability of the compound ([Lipinski et al., 2001]).

[3] = Multiple component PK study in rat plasma after p.o. GDDP (HPLC-MS); conditions: for determination in rat plasma at the planned successive PK time points / detection in rat plasma: GDDP 0.8 g/kg p.o.; for determination in rat plasma at the planned successive PK time points: 5, 10, 15, 30, 45, 60, and 120 min, LOQ 1.0–1.4 ng/mL; for detection in rat plasma: at 5, 10, 15, 30, 45, or 60 min, LOD 0.5–0.7 ng/mL; for AUC(0-inf) / AUC(0-t) / MRT inf / MRT last / Tmax / Cmax / half-life: Sprague-Dawley, rat, plasma, po
Caco-2 cell monolayers = conditions: ref Lu et al., 2008, Liu et al., 2009, Hu et al., 2014, Bowles et al., 2017, cited from earlier work; for Papp(apical→basolateral) / Papp(basolateral→apical): Caco-2 cell monolayers, from literature; for apparent permeability in Caco-2 cell monolayers: previous results
[4] = test system: isoprenaline-induced MI in mice; assay: In vivo anti-MI study: isoprenaline-induced myocardial injury (ECG, H&E histology); conditions: for Histopathology of heart tissue (H&E): 40 mg/kg; for ECG (lead II) findings on the fifth day of the trial: 40 mg/kg p.o., isoprenaline 5 mg/kg on days 4 and 5
[5] = 24h in auto-sampler vials, spiked 2 ng/mL
[6] = 24h in auto-sampler vials, spiked 400 ng/mL
[7] = 24h in auto-sampler vials, spiked 1600 ng/mL
[8] = Placing plasma for 6h at 4°C, spiked 2 ng/mL
[9] = Placing plasma for 6h at 4°C, spiked 400 ng/mL
[10] = Placing plasma for 6h at 4°C, spiked 1600 ng/mL
[11] = three freeze-thaw cycles, rat plasma, spiked 2 ng/mL
[12] = three freeze-thaw cycles, rat plasma, spiked 400 ng/mL
[13] = three freeze-thaw cycles, rat plasma, spiked 1600 ng/mL
[14] = 0.4 g/kg, Cmax, rat plasma, GDDP 0.4 g/kg p.o. (Low dose group), n=3
[15] = 0.4 g/kg, t1/2 β, rat plasma, GDDP 0.4 g/kg p.o. (Low dose group), n=3
[16] = 0.8 g/kg, Cmax (high / low plasma drug concentrations), rats, GDDP 0.4 and 0.8 g/kg p.o., classification
[17] = 0.8 g/kg, Cmax, rat plasma, GDDP 0.8 g/kg p.o. (High dose group), n=3
[18] = 0.8 g/kg, t1/2 β (fast / slow elimination type), rats, GDDP 0.4 and 0.8 g/kg p.o., classification
[19] = 0.8 g/kg, t1/2 β, rat plasma, GDDP 0.8 g/kg p.o. (High dose group), n=3
[20] = rat plasma, GDDP 0.4 g/kg p.o. (Low dose group), n=3
[21] = rat plasma, GDDP 0.8 g/kg p.o. (High dose group), n=3
[22] = 40 mg/kg p.o. for 7 days, isoprenaline-induced MI

CC(C)=CCC[C@](C)(O[C@@H]1O[C@H](CO[C@@H]2O[C@H](CO)[C@@H](O)[C@H](O)[C@H]2O)[C@@H](O)[C@H](O)[C@H]1O)[C@H]1CC[C@]2(C)[C@@H]1[C@H](O)C[C@@H]1[C@@]3(C)CC[C@H](O[C@@H]4O[C@H](CO)[C@@H](O)[C@H](O)[C@H]4O[C@@H]4O[C@H](CO)[C@@H](O)[C@H](O)[C@H]4O)C(C)(C)[C@@H]3CC[C@]12C [Rb1, ginsenoside Rb1]
Stability: Measured [1, 5]: 1.97 ± 0.29 ng/mL
Stability: RE [1, 5]: -1.62%
Stability: Measured [1, 6]: 386.10 ± 20.53 ng/mL
Stability: RE [1, 6]: -3.47%
Stability: Measured [1, 7]: 1540.64 ± 55.53 ng/mL
Stability: RE [1, 7]: -3.71%
Stability: Measured [1, 8]: 1.66 ± 0.17 ng/mL
Stability: RE [1, 8]: -16.86%
Stability: Measured [1, 9]: 376.87 ± 18.97 ng/mL
Stability: RE [1, 9]: -5.78%
Stability: Measured [1, 10]: 1647.48 ± 31.81 ng/mL
Stability: RE [1, 10]: 2.97%
Stability: Measured [1, 11]: 1.75 ± 0.23 ng/mL
Stability: RE [1, 11]: -12.42%
Stability: Measured [1, 12]: 394.28 ± 21.32 ng/mL
Stability: RE [1, 12]: -1.43%
Stability: Measured [1, 13]: 1601.88 ± 26.56 ng/mL
Stability: RE [1, 13]: 0.12%
solubility at 5 min [2]: > 10000 µg/mL
determination in rat plasma at the planned successive PK time points [3]: could be determined
detection in rat plasma [3]: could be detected
AUC(0-inf) ([3]; 0.4 g/kg): 1930 ± 1300 ng·h/mL
AUC(0-t) ([3]; 0.4 g/kg): 818 ± 272 ng·h/mL
MRT inf ([3]; 0.4 g/kg): 36.6 ± 17.7 h
MRT last ([3]; 0.4 g/kg): 11.42 ± 0.11 h
Tmax ([3]; 0.4 g/kg): 3.25 ± 3.89 h
Cmax [3, 14]: 57 ± 27.3 ng/mL
half-life [3, 15]: 22.9 ± 12.4 h
AUC(0-inf) ([3]; 0.8 g/kg): 1350 ± 486 ng·h/mL
AUC(0-t) ([3]; 0.8 g/kg): 998 ± 200 ng·h/mL
MRT inf ([3]; 0.8 g/kg): 17.1 ± 4.98 h
MRT last ([3]; 0.8 g/kg): 9.63 ± 0.6 h
Tmax ([3]; 0.8 g/kg): 3.34 ± 3.05 h
Cmax [3, 16]: > 20 ng/mL
Cmax [3, 17]: 80.3 ± 19.2 ng/mL
half-life [3, 18]: > 2.6 h
half-life [3, 19]: 10.8 ± 4.03 h
Cltot [3, 20]: 18 ± 12 mL/min/kg
Cltot [3, 21]: 43.2 ± 13.5 mL/min/kg
systematic exposure (AUC0-∞), times higher than those of CTS and DHTS ([3]; rats, p.o. GDDP, P < 0.05): 84–1137 times
systematic exposure (AUC0-∞), times higher than those of Rd, R1, Rg1, TS IIA, and TS I ([3]; rats, p.o. GDDP, P < 0.05): 3.5–30 times
Papp(apical→basolateral) (Caco-2 cell monolayers): > 0.1^c ×10^-6 cm/s
Papp(basolateral→apical) (Caco-2 cell monolayers): > 0.1^c ×10^-6 cm/s
apparent permeability in Caco-2 cell monolayers (Caco-2 cell monolayers): > 10^-7 cm/s
anti-MI effect (overall conclusion) [4, 22]: favorable anti-MI effect
Histopathology of heart tissue (H&E) [4, 22]: less severe histological damage with mild cell distortion, edema, and good continuity with adjacent myofibrils
ECG (lead II) findings on the fifth day of the trial [4]: T waves reversed or decreased

CC(C)=CCC[C@](C)(O[C@@H]1O[C@H](CO)[C@@H](O)[C@H](O)[C@H]1O)[C@H]1CC[C@]2(C)[C@@H]1[C@H](O)C[C@@H]1[C@@]3(C)CC[C@H](O[C@@H]4O[C@H](CO)[C@@H](O)[C@H](O)[C@H]4O[C@@H]4O[C@H](CO)[C@@H](O)[C@H](O)[C@H]4O)C(C)(C)[C@@H]3CC[C@]12C [Rd, ginsenoside Rd]
Stability: Measured [1, 5]: 1.93 ± 0.23 ng/mL
Stability: RE [1, 5]: -3.59%
Stability: Measured [1, 6]: 406.43 ± 27.13 ng/mL
Stability: RE [1, 6]: 1.61%
Stability: Measured [1, 7]: 1489.53 ± 52.70 ng/mL
Stability: RE [1, 7]: -6.90%
Stability: Measured [1, 8]: 1.65 ± 0.33 ng/mL
Stability: RE [1, 8]: -17.56%
Stability: Measured [1, 9]: 449.87 ± 18.67 ng/mL
Stability: RE [1, 9]: 12.47%
Stability: Measured [1, 10]: 1891.74 ± 134.38 ng/mL
Stability: RE [1, 10]: 18.23%
Stability: Measured [1, 11]: 1.81 ± 0.18 ng/mL
Stability: RE [1, 11]: -9.59%
Stability: Measured [1, 12]: 438.01 ± 11.23 ng/mL
Stability: RE [1, 12]: 9.50%
Stability: Measured [1, 13]: 1768.72 ± 60.05 ng/mL
Stability: RE [1, 13]: 10.54%
solubility at 5 min [2]: > 10000 µg/mL
determination in rat plasma at the planned successive PK time points [3]: could be determined
detection in rat plasma [3]: could be detected
AUC(0-inf) ([3]; 0.4 g/kg): 340 ± 348 ng·h/mL
AUC(0-t) ([3]; 0.4 g/kg): 254 ± 236 ng·h/mL
MRT inf ([3]; 0.4 g/kg): 12.8 ± 8.78 h
MRT last ([3]; 0.4 g/kg): 8.88 ± 3.79 h
Tmax ([3]; 0.4 g/kg): 9 ± 4.24 h
Cmax [3, 14]: 24.5 ± 4.04 ng/mL
half-life [3, 15]: 5.63 ± 5.88 h
AUC(0-inf) ([3]; 0.8 g/kg): 378 ± 56.4 ng·h/mL
AUC(0-t) ([3]; 0.8 g/kg): 281 ± 28.1 ng·h/mL
MRT inf ([3]; 0.8 g/kg): 17.3 ± 2.01 h
MRT last ([3]; 0.8 g/kg): 10.7 ± 2.31 h
Tmax ([3]; 0.8 g/kg): 2.25 ± 3.25 h
Cmax [3, 16]: > 20 ng/mL
Cmax [3, 17]: 37.2 ± 26.3 ng/mL
half-life [3, 18]: > 2.6 h
half-life [3, 19]: 8.53 ± 4.42 h
Cltot [3, 20]: 624.2 ± 638.8 mL/min/kg
Cltot [3, 21]: 350.3 ± 310.5 mL/min/kg
Papp(apical→basolateral) (Caco-2 cell monolayers): > 0.1^c ×10^-6 cm/s
Papp(basolateral→apical) (Caco-2 cell monolayers): > 0.1^c ×10^-6 cm/s
apparent permeability in Caco-2 cell monolayers (Caco-2 cell monolayers): > 10^-7 cm/s
Histopathology of heart tissue (H&E) [4, 22]: remarkably severe histological damage with extensive myocardial lysis and architecture wrecking; also recorded: extremely severe histological damage with extensive myocardial lysis and architecture wrecking
ECG (lead II) findings on the fifth day of the trial [4]: ST segment elevated
